Test results as given in patent US5785948A, “Metal chelate forming peptides and use thereof represented by three amino acid sequences” (Nihon Medi-Physics Co., Ltd., priority 1994, dated 1998).
Where no end group is shown, it is not given here.

Columns and labels:
Tumor cells HEp2 = assay: Imaging of tumor in HEp2 tumor-bearing nude mouse (gamma camera, organ radioactivity); type: in vivo, BALB/C nude mouse; settings: twenty minutes after injection
Procedure: Tumor cells HEp2 (5×10^6 cells, Human Epidermoid Carcinoma; ATCC No. CCL 23) were suspended in 1.0 ml of medium (Minimum essential medium (Eagle's) with Earle's BSS, 90% fetal bovine serum, 10%), and 100 μl of the suspension was subcutaneously injected to BALB/C nude mouse (6 weeks age) at the body side. […] Five and 20 minutes after the injection, the animal was imaged with a gamma camera.
Immediately after the imaging, the animal was sacrificed and examined for the distribution of the radioactivity in each organ using NaI single channel analyzer to determine a ratio of the radioactivity in tumor site to the radioactivity in muscle site (T/B ratio).

inflammation site = settings: S. aureus inflammation rat
Procedure: Staphylococcus aureus 10^8 cells were suspended in 1 ml of physiological saline, and 100 μl of the suspension was intramuscularly administered to SD rats weighing about 220 g at the right calf. […] Thirty and 120 minutes after the peptide was injected, the animal was imaged with a gamma camera. Regions of interest were selected from the obtained image to determine a ratio T/B of the radioactivity in inflammation site (T) to the radioactivity in normal site (B).

| Substance | T/B ratio (radioactivity in tumor site to radioactivity in muscle site) (Tumor cells HEp2; i.v. tail vein, n=3) | Imaging of tumor site (gamma camera) (Tumor cells HEp2) | T/B ratio (radioactivity in inflammation site to radioactivity in normal site) (inflammation site; i.v. tail vein, regions of interest of image, n=6) | Imaging of inflammation site (gamma camera) (inflammation site; imaged 30 and 120 minutes after injection) |
| --- | --- | --- | --- | --- |
| Tc-99m-KYCAREPPTRTNAYWGQG (also: Tc-99m label) [Tc-99m-labeled peptide containing KYC at the N-terminus, for tumor imaging] | 4.50±0.71 | clearly imaged | – | – |
| Tc-99m-KYCGGKTKPREQQYNSTYRVV-NH2 | – | – | 3.26±0.18 | clearly imaged |
